Results as given in patent US20220280425A1, “FLAVONOIDS AND LINOLEIC ACID USES IN HYPERTENSION” (King Abdulaziz University, priority 2021, published 2022).

What was measured:
[1] = test system: angiotensin model of hypertensive rats; test: Invasive blood pressure recording in angiotensin II acute hypertension model; assay type: in vivo, male Wistar rats; settings: for anti-hypertensive effect: current study, IV SNEDDS formulation, angiotensin II infused rats
Procedure: (§1) Six-week-old male Wistar rats with a weight of (250-275 g) were obtained from Zagazig University. They were kept in clear cages made of polypropylene and with good ventilation (3-4 rats in each cage), under constant environmental conditions of 22±2° C. temperature, 50-60% relative humidity and 12-h day and night cycle. Unlimited rodent pellet food and purified water were provided to the rats. The experimental design and animal handling procedures were as indicated by the guidelines of the Ethical Committee for Animal Handling at Zagazig University.
The blood pressure was recorded invasively in real. The rats were subjected to anesthesia with single intraperitoneal injection of 100 mg/kg ketamine and 10 mg/kg xylazine. Animals' body temperature was held at 37° C. by means of a rectal probe and automated heating pads. A micro-tip pressure volume catheter (PV catheter, SPR-901, Millar Instruments, Houston, Tex., USA) was inserted via a small opening into the right carotid artery. This instrument can continuously monitor the arterial pressure. The micro-tip catheter was linked via a Power Lab Data Interface to a computer running the Lab Chart professional software (v8.0, AD Instruments, Bella Vista, Australia) incorporating blood pressure (BP) module. Following a stabilization time of 5 min, readings were continuously recorded. The BP module was employed to monitor the systolic and diastolic blood pressure.
(§2) After 10 min (stabilization period) of basal recording of invasive blood pressure and ECG, angiotensin II (120 ng/min/kg) was slowly infused through the femoral vein using syringe pump and continued throughout the experiment duration.
(§3) Invasive blood hemodynamics and ECG were continuously recorded throughout the experiment. Saline (0.3 ml) was injected in time control experiments.
(§4) Values of the present study presented in form of mean ±SEM. Statistical analysis was carried out using the Prism 5 computer program (Graph Pad, USA). Statistical comparison was done using repeated measures Two way analysis of variance (ANOVA) followed by Bonferroni' post-hoc test of baseline-corrected data and P<0.05 was considered significant.

[2] = test system: angiotensin model of hypertensive rats; test: Electrocardiogram (ECG) recording in angiotensin II acute hypertension model; assay type: in vivo, male Wistar rats; settings: IV formulation
Procedure: as §1
A Powerlab® system (AD Instruments, Bella Vista, Australia) linked to a computer running the LabChart professional software with the ECG module was employed to record the standard surface ECG according to the methodology outlined in a previous report by our group. The ECG module quantitatively assesses the various elements of the ECG.
as §2, §3, §4

[3] = previous report; cited from earlier work
[4] = IV formulation, 10 min after doses 24 and 36 μg/kg, vs vehicle group, p<0.05
[5] = dose 36 μg/kg, vs vehicle group, p<0.05

Compound | reflex tachycardia ([1]; IV SNEDDS containing 10% linoleic acid) | dicrotic notch pressure [1, 4] | pulse pressure [1, 4] | non-ejection duration ([1]; IV formulation, dose 36 μg/kg, vs vehicle group) | SDP difference (systolic blood pressure-dicrotic notch pressure difference) ([1]; IV formulation, doses 12, 24 and 36 μg/kg, vs vehicle group, p<0.05) | ejection duration ([1]; IV formulation, doses 24 and 36 μg/kg, vs vehicle group) | time to peak ([1]; IV formulation, vs vehicle group) | systolic blood pressure ([1]; IV linoleic acid SNEDDS formulation, 12, 24 and 36 μg/kg, 10 min after each dose, p<0.05) | diastolic blood pressure ([1]; IV linoleic acid SNEDDS formulation, significant at 24 and 36 μg/kg vs plain IV formulation, p<0.05) | anti-hypertensive effect [1] | heart rate ([1]; medicated IV formulation compared with the plain IV formulation) | JT interval ([2]; 12, 24, 36 μg/kg) | P-wave duration ([2]; 12, 24, 36 μg/kg) | PR interval ([2]; 12, 24, 36 μg/kg) | QTc interval ([2]; 12, 24, 36 μg/kg) | R wave amplitude [2, 5] | T wave amplitude [2, 5] | vasodilation activity [3]
COc1cc(-c2cc(=O)c3c(O)c(OC)c(OC)cc3o2)cc(OC)c1OC [Compound 1, umuhengerin] | without reflex tachycardia | significant reduction | significant reduction | significant increase | significant reduction | significant decrease | no change | gradual dose dependent reduction | gradual and reached a plateau with statistical significance | observed | did not produced any further effect | no significant effect | did not affect | did not affect | no significant effect | significant decrease | increase | significant vasodilation activity
COc1ccc(-c2cc(=O)c3c(O)cc(O)cc3o2)cc1OC [Compound 4, luteolin-3′,4′ -dimethyl ether] | – | – | – | – | – | – | – | – | – | lack of antihypertensive efficacy | – | – | – | – | – | – | – | significant vasodilation activity
